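Grown in 96-well plates, cells were treated for 48 hours with each compound at five concentrations. Insufficient inhibition: endpoint recorded as highest concentration tested. GI50 is the concentration that inhibits growth by half.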 Calls of active or inactive are those of the source. Rule as the data show it: active = GI50 up to about 1.1 µM and inactive = higher.
Assays:
Experiment in all cases: NCI anticancer screen, dose series, 48 h
A498 = tested on: A498
A549 = tested on: A549
ACHN = tested on: ACHN
COLO 205 = tested on: COLO 205
EKVX = tested on: EKVX
HCC 2998 = tested on: HCC 2998
HL-60 = tested on: HL-60
HOP-92 = tested on: HOP-92
HT-29 = tested on: HT-29
KM12 = tested on: KM12
MOLT-4 = tested on: MOLT-4
OVCAR-3 = tested on: OVCAR-3
OVCAR-4 = tested on: OVCAR-4
OVCAR-5 = tested on: OVCAR-5
SK-MEL-28 = tested on: SK-MEL-28
SK-MEL-5 = tested on: SK-MEL-5
SN12C = tested on: SN12C
Hs-578T = tested on: Hs-578T
NCI/ADR-RES = tested on: NCI/ADR-RES
MCF7 = tested on: MCF7

| SMILES | GI50 (A498) | GI50 (A549) | GI50 (ACHN) | GI50 (COLO 205) | GI50 (EKVX) | GI50 (HCC 2998) | GI50 (HL-60) | GI50 (HOP-92) | GI50 (HT-29) | GI50 (KM12) | GI50 (MOLT-4) | GI50 (OVCAR-3) | GI50 (OVCAR-4) | GI50 (OVCAR-5) | GI50 (SK-MEL-28) | GI50 (SK-MEL-5) | GI50 (SN12C) | GI50 (Hs-578T) | GI50 (NCI/ADR-RES) | GI50 (MCF7) |
| --- | --- | --- | --- | --- | --- | --- | --- | --- | --- | --- | --- | --- | --- | --- | --- | --- | --- | --- | --- | --- |
| C=CC(=O)NCNC(=O)C=C | > 100 µM (inactive) | > 100 µM (inactive) | > 100 µM (inactive) | > 100 µM (inactive) | > 100 µM (inactive) | > 100 µM (inactive) | > 100 µM (inactive) | > 100 µM (inactive) | > 100 µM (inactive) | > 100 µM (inactive) | > 100 µM (inactive) | > 100 µM (inactive) | > 100 µM (inactive) | > 100 µM (inactive) | > 100 µM (inactive) | > 100 µM (inactive) | > 100 µM (inactive) |  |  |  |
| Cc1ccc(/N=N/c2c(O)ccc3ccccc23)c(C)c1 | > 100 µM (inactive) | > 100 µM (inactive) |  | > 100 µM (inactive) |  |  |  | > 100 µM (inactive) | > 100 µM (inactive) | > 100 µM (inactive) | > 100 µM (inactive) | > 100 µM (inactive) | > 100 µM (inactive) | > 100 µM (inactive) | > 100 µM (inactive) | > 100 µM (inactive) | > 100 µM (inactive) | > 100 µM (inactive) | > 100 µM (inactive) |  |
| c1cc2c(cc1C(N1CCNCC1)N1CCNCC1)OCO2 | > 100 µM (inactive) | > 100 µM (inactive) | > 100 µM (inactive) | > 100 µM (inactive) | > 100 µM (inactive) |  |  | > 100 µM (inactive) | > 100 µM (inactive) | > 100 µM (inactive) |  | > 100 µM (inactive) | > 100 µM (inactive) | > 100 µM (inactive) | > 100 µM (inactive) | > 100 µM (inactive) | > 100 µM (inactive) | > 100 µM (inactive) | > 100 µM (inactive) | > 100 µM (inactive) |
| Cc1cc(Cl)ccc1NC(=O)C(=O)Cc1ccc([N+](=O)[O-])c([N+](=O)[O-])c1CC(=O)C(=O)Nc1ccc(Cl)cc1C | > 100 µM (inactive) | > 100 µM (inactive) | > 100 µM (inactive) | 61.1 µM (inactive) | > 100 µM (inactive) | > 100 µM (inactive) | > 100 µM (inactive) | 82 µM (inactive) | > 100 µM (inactive) | > 100 µM (inactive) | > 100 µM (inactive) | 70.3 µM (inactive) | > 100 µM (inactive) | > 100 µM (inactive) | > 100 µM (inactive) | > 100 µM (inactive) | > 100 µM (inactive) |  |  |  |
| CC(Cn1c(=O)oc2ccccc21)N(C)C (stereo not given) | > 100 µM (inactive) |  | > 100 µM (inactive) | > 100 µM (inactive) | > 100 µM (inactive) |  | > 100 µM (inactive) |  | > 100 µM (inactive) | > 100 µM (inactive) | > 100 µM (inactive) | > 100 µM (inactive) |  | > 100 µM (inactive) | > 100 µM (inactive) | > 100 µM (inactive) | > 100 µM (inactive) | > 100 µM (inactive) | > 100 µM (inactive) | > 100 µM (inactive) |
| Cc1cn(C(Cc2ccccc2)OCCO)c(=O)[nH]c1=O (stereo not given) | > 100 µM (inactive) | > 100 µM (inactive) | > 100 µM (inactive) | > 100 µM (inactive) | > 100 µM (inactive) | > 100 µM (inactive) |  | > 100 µM (inactive) | > 100 µM (inactive) | > 100 µM (inactive) | > 100 µM (inactive) | > 100 µM (inactive) | > 100 µM (inactive) | > 100 µM (inactive) | > 100 µM (inactive) | > 100 µM (inactive) | > 100 µM (inactive) |  | > 100 µM (inactive) | > 100 µM (inactive) |
| c1ccc2nn(C3CCCCO3)nc2c1 (stereo not given) |  | > 100 µM (inactive) | > 100 µM (inactive) | > 100 µM (inactive) | > 100 µM (inactive) | > 100 µM (inactive) |  |  | > 100 µM (inactive) | > 100 µM (inactive) | > 100 µM (inactive) | > 100 µM (inactive) | > 100 µM (inactive) | > 100 µM (inactive) |  | > 100 µM (inactive) | > 100 µM (inactive) | > 100 µM (inactive) | > 100 µM (inactive) | > 100 µM (inactive) |
| Cc1ccc([N+](=O)[O-])cc1S(=O)(=O)Nc1ccc(C2=NN(c3ccc([N+](=O)[O-])cc3[N+](=O)[O-])C(c3ccccc3O)C2)cc1 (stereo not given) |  | 31.4 µM (inactive) | 35.1 µM (inactive) | 32.4 µM (inactive) | 26 µM (inactive) |  | 27.4 µM (inactive) | 26.6 µM (inactive) | 43.3 µM (inactive) | 37 µM (inactive) | 12.7 µM (inactive) | 24.9 µM (inactive) | 31 µM (inactive) | > 100 µM (inactive) | 75.5 µM (inactive) | 20 µM (inactive) | 18 µM (inactive) | 42.7 µM (inactive) | 27.9 µM (inactive) | 27.9 µM (inactive) |
| O=C1CSc2nc3ccccc3n2/C=N\N1 | > 100 µM (inactive) | > 100 µM (inactive) | > 100 µM (inactive) | > 100 µM (inactive) |  | > 100 µM (inactive) |  | > 100 µM (inactive) | > 100 µM (inactive) | > 100 µM (inactive) | > 100 µM (inactive) |  | > 100 µM (inactive) | > 100 µM (inactive) | > 100 µM (inactive) | > 100 µM (inactive) | > 100 µM (inactive) |  | > 100 µM (inactive) | > 100 µM (inactive) |
| CN(C)CCCNc1ccc([N+](=O)[O-])c2nc3ccccc3c(N)c12 | 2.22 µM (inactive) | 0.512 µM (active) | 0.205 µM (active) | 0.243 µM (active) | 0.755 µM (active) |  | 0.459 µM (active) | 0.516 µM (active) | 0.225 µM (active) | 0.436 µM (active) | 0.278 µM (active) | 0.63 µM (active) | 0.169 µM (active) | 2.49 µM (inactive) | 2.44 µM (inactive) | 1.21 µM (inactive) | 0.771 µM (active) | 3.33 µM (inactive) | 0.397 µM (active) | 0.459 µM (active) |
| Brc1ccc(-c2nc(-c3ccc(Br)cc3)n(-c3ccccc3)n2)cc1 | > 100 µM (inactive) | 61.8 µM (inactive) | > 100 µM (inactive) | 27.2 µM (inactive) | 85.5 µM (inactive) |  | 34.8 µM (inactive) | > 100 µM (inactive) | 26.9 µM (inactive) | 49.5 µM (inactive) | 53.7 µM (inactive) | > 100 µM (inactive) | > 100 µM (inactive) | > 100 µM (inactive) | > 100 µM (inactive) | > 100 µM (inactive) | > 100 µM (inactive) | > 100 µM (inactive) | > 100 µM (inactive) | > 100 µM (inactive) |
| Cc1ccc(NC(=O)CC(=O)n2nc(-c3ccccc3)c(/N=N/c3ccccc3Cl)c2-c2ccccc2)cc1 | 34 µM (inactive) | 98.2 µM (inactive) | 49.9 µM (inactive) | > 10 µM (inactive) | 88.9 µM (inactive) | > 10 µM (inactive) | 0.458 µM (active) | 23.6 µM (inactive) | > 10 µM (inactive) | > 10 µM (inactive) | > 10 µM (inactive) | > 10 µM (inactive) | 26.5 µM (inactive) | 19.4 µM (inactive) | 62.2 µM (inactive) | 67.1 µM (inactive) | > 10 µM (inactive) |  |  |  |
| CN1CCN(/C(N)=C(\C#N)C(=O)Nc2ccccc2)CC1 | > 100 µM (inactive) | > 100 µM (inactive) | > 100 µM (inactive) | > 100 µM (inactive) | > 100 µM (inactive) | > 100 µM (inactive) |  | > 100 µM (inactive) |  | > 100 µM (inactive) | > 100 µM (inactive) | > 100 µM (inactive) |  | > 100 µM (inactive) | > 100 µM (inactive) | > 100 µM (inactive) | > 100 µM (inactive) |  | > 100 µM (inactive) | > 100 µM (inactive) |
| OCC1C2CCC3(OCCO3)C12 (stereo not given) |  | > 100 µM (inactive) | > 100 µM (inactive) | > 100 µM (inactive) | > 100 µM (inactive) | > 100 µM (inactive) |  | > 100 µM (inactive) | > 100 µM (inactive) | > 100 µM (inactive) | > 100 µM (inactive) | > 100 µM (inactive) | > 100 µM (inactive) | > 100 µM (inactive) | > 100 µM (inactive) | > 100 µM (inactive) | > 100 µM (inactive) |  | > 100 µM (inactive) | > 100 µM (inactive) |
| CN(C)C(=O)C1CCN(Cc2c[nH]c3ccccc23)CC1 | > 100 µM (inactive) | > 100 µM (inactive) | > 100 µM (inactive) | > 100 µM (inactive) | > 100 µM (inactive) |  | > 100 µM (inactive) | > 100 µM (inactive) | > 100 µM (inactive) | > 100 µM (inactive) | > 100 µM (inactive) | > 100 µM (inactive) | > 100 µM (inactive) | > 100 µM (inactive) | > 100 µM (inactive) | > 100 µM (inactive) | > 100 µM (inactive) | > 100 µM (inactive) | > 100 µM (inactive) | > 100 µM (inactive) |
| COC(=O)C1CCC(=O)N1C(c1ccccc1)c1cc(OC)c(OC)c(OC)c1 (stereo not given) | 82.4 µM (inactive) | 54.2 µM (inactive) | > 100 µM (inactive) | 45.5 µM (inactive) | 91 µM (inactive) | > 100 µM (inactive) | 29.4 µM (inactive) | 99.3 µM (inactive) | 29.4 µM (inactive) | 45.8 µM (inactive) | 31.8 µM (inactive) | 51.2 µM (inactive) | 49.7 µM (inactive) | > 100 µM (inactive) | 99.8 µM (inactive) |  | 80.5 µM (inactive) |  | 76 µM (inactive) | 67.9 µM (inactive) |
